Data reported in paper PMC8761492 (Life Science Alliance, 2022).
Read-outs that look alike come from different tables or passages of the source. Starred links: 1 amine or outer side, 2 acyl side, 3 side chain; linkers in the order of their positions; H or OH if unused. Positions of bridges follow the written chain, without caps; N, C: chain ends. Non-standard residues stand in square brackets, D forms with d. Residues, ends and D or L forms follow the SMILES beside them. *: point of attachment. X1 = CC[C@H](C)[C@@H](N[*:1])[C@@H](O)CC(=O)O[C@H](C(=O)[C@H](C)C(=O)[*:2])C(C)C; NMeY = CN[C@@H](Cc1ccc(O)cc1)C(=O)O; dNMeL = CN[C@H](CC(C)C)C(=O)O; Pyruvoyl = CC(=O)C(=O)*

Legend:
[1] = tested on: CYP3A4; parameters: method as in study protocol; conditions: in vitro studies; ref study protocol; cited from earlier work
[2] = tested on: COVID-19; assay: APLICOV-PC: mortality, ventilation, ICU admission and oxygen therapy; format: in vivo, human
Procedure: Secondary outcomes included change from baseline of viral load, as evaluated by quantitative PCR via central laboratory on nasopharyngeal exudate or sampled from the lower respiratory tract within 48 h before first administration of plitidepsin and on days 4, 7, 15, and 31, and the percentage of patients requiring oxygen therapy, noninvasive mechanical ventilation, invasive mechanical ventilation and/or intensive care unit admission, and the percentage of patients with a fatal outcome on days 7, 15, and 31.
Analysis for preliminary evidence of efficacy was performed on all patients who had efficacy assessments at baseline and at least one subsequent assessment during treatment.
In regards with subgroup analyses, safety and efficacy outcomes also were assessed by age-group (<65 versus ≥65 yr) and efficacy outcomes were assessed by disease severity at baseline. Safety outcomes were also assessed before and after the implementation of the protocol amendment.

[3] = cited from earlier work
[4] = tested on: SARS-CoV-2 B.1.1.7; assay: microbe, parasite or virus in culture; format: cell-based; conditions: 24 h, mean ± SEM
[5] = APLICOV-PC: central analysis of electrocardiograms; conditions: 317 ECGs from 44 patients; no value above
[6] = tested on: SARS-CoV-2; assay: SARS-CoV-2-induced cytopathic effect in Vero E6 cells (CellTiter-Glo); conditions: read-out: IC50 against SARS-CoV-2-induced cytopathic effects, 3 d post infection
[7] = tested on: SARS-CoV-2; parameters: method as in PMID 33495306; conditions: SARS-CoV-2 in vitro; cited from earlier work
[8] = tested on: SARS-CoV-2/WA1; assay: SARS-CoV-2 infectivity in HeLa-ACE2 cells (viral NP); format: cell-based; conditions: Severe acute respiratory syndrome coronavirus 2, HeLa-ACE2, 48 h
[9] = Day 1 to Day 7, 1.5 mg (N = 14)
[10] = Day 1 to Day 7, 2.0 mg (N = 15)
[11] = Day 1 to Day 7, 2.5 mg (N = 15)
[12] = Day 1 to Day 31, 1.5 mg (N = 14)
[13] = Day 1 to Day 31, 2.0 mg (N = 15)
[14] = Day 1 to Day 31, 2.5 mg (N = 15)
[15] = Day 1 to Day 31, Total (N = 44)
[16] = Day 8 to Day 15, 1.5 mg (N = 14)
[17] = Day 8 to Day 15, 2.0 mg (N = 15)
[18] = Day 8 to Day 15, 2.5 mg (N = 15)
[19] = Day 8 to Day 15, Total (N = 44)
[20] = Day 16 to Day 31, 1.5 mg (N = 14)
[21] = Day 16 to Day 31, 2.0 mg (N = 15)
[22] = Day 16 to Day 31, 2.5 mg (N = 15)
[23] = Day 16 to Day 31, Total (N = 44)
[24] = day 1 to Day 7, Moderate (N=23)
[25] = day 1 to Day 15, Moderate (N=23)
[26] = day 1 to Day 31, Moderate (N=23)
[27] = 1-hour D1,8,15 q4wk, ref phase 1 programme
[28] = 1-hour iv D1-5 q3wk, ref APL-A-004-98
[29] = 3-hour D1,15 q4wk, ref phase 1 programme
[30] = 24-hour D1,8,15 q4wk, ref phase 1 programme
[31] = 24-hour D1,15 q4wk, plitidepsin alone, ref phase 1 programme

CC[C@H](C)[C@H]1NC(=O)[C@@H](NC(=O)[C@@H](CC(C)C)N(C)C(=O)[C@@H]2CCCN2C(=O)C(C)=O)[C@@H](C)OC(=O)[C@H](Cc2ccc(OC)cc2)N(C)C(=O)[C@@H]2CCCN2C(=O)[C@H](CC(C)C)NC(=O)[C@@H](C)C(=O)[C@H](C(C)C)OC(=O)C[C@@H]1O [Plitidepsin] (Pyruvoyl-P[dNMeL]T[X1]LP[NMeY](Me); ester 3-C)
major enzyme involved in plitidepsin metabolism [1]: CYP3A4
Mortality from Day 1 to Day 31 ([2]; 1.5 mg (N = 14)): 1 (7.1)
Mortality from Day 1 to Day 31 ([2]; 2.5 mg (N = 15)): 1 (6.7)
Patients requiring invasive mechanical ventilation and/or intensive care unit admission [2, 9]: 2 (14.3)
Patients requiring noninvasive mechanical ventilation [2, 9]: 4 (28.6)
Patients requiring invasive mechanical ventilation and/or intensive care unit admission [2, 10]: 1 (6.7)
Patients requiring noninvasive mechanical ventilation [2, 10]: 0
Patients requiring invasive mechanical ventilation and/or intensive care unit admission [2, 11]: 2 (13.3)
Patients requiring noninvasive mechanical ventilation [2, 11]: 1 (6.7)
Patients requiring invasive mechanical ventilation and/or intensive care unit admission ([2]; Day 1 to Day 7, Total (N = 44)): 5 (11.4)
Patients requiring noninvasive mechanical ventilation ([2]; Day 1 to Day 7, Total (N = 44)): 5 (11.4)
Patients requiring invasive mechanical ventilation and/or intensive care unit admission [2, 12]: 2 (14.3)
Patients requiring noninvasive mechanical ventilation [2, 12]: 5 (35.7)
Patients requiring oxygen therapy at [2, 12]: 12 (85.7)
Patients requiring invasive mechanical ventilation and/or intensive care unit admission [2, 13]: 1 (6.7)
Patients requiring noninvasive mechanical ventilation [2, 13]: 1 (6.7)
Patients requiring oxygen therapy at [2, 13]: 12 (80.0)
Patients requiring invasive mechanical ventilation and/or intensive care unit admission [2, 14]: 3 (20.0)
Patients requiring noninvasive mechanical ventilation [2, 14]: 2 (13.3)
Patients requiring oxygen therapy at [2, 14]: 11 (73.3)
Patients requiring invasive mechanical ventilation and/or intensive care unit admission [2, 15]: 6 (13.6)
Patients requiring noninvasive mechanical ventilation [2, 15]: 8 (18.2)
Patients requiring oxygen therapy at [2, 15]: 35 (79.5)
Patients requiring oxygen therapy at ([2]; Day 7, 1.5 mg (N=14)): 12 (85.7)
Patients requiring oxygen therapy at ([2]; Day 7, 2.0 mg (N = 15)): 12 (80.0)
Patients requiring oxygen therapy at ([2]; Day 7, 2.5 mg (N=15)): 11 (73.3)
Patients requiring oxygen therapy at ([2]; Day 7, Total (N=44)): 35 (79.5)
Patients requiring invasive mechanical ventilation and/or intensive care unit admission [2, 16]: 1 (7.1)
Patients requiring noninvasive mechanical ventilation [2, 16]: 3 (21.4)
Patients requiring invasive mechanical ventilation and/or intensive care unit admission [2, 17]: 1 (6.7)
Patients requiring noninvasive mechanical ventilation [2, 17]: 0
Patients requiring invasive mechanical ventilation and/or intensive care unit admission [2, 18]: 1 (6.7)
Patients requiring noninvasive mechanical ventilation [2, 18]: 2 (13.3)
Patients requiring invasive mechanical ventilation and/or intensive care unit admission [2, 19]: 3 (6.8)
Patients requiring noninvasive mechanical ventilation [2, 19]: 5 (11.4)
Patients requiring oxygen therapy at ([2]; Day 15, 1.5 mg (N=14)): 4 (28.6)
Patients requiring oxygen therapy at ([2]; Day 15, 2.0 mg (N = 15)): 1 (6.7)
Patients requiring oxygen therapy at ([2]; Day 15, 2.5 mg (N=15)): 4 (26.7)
Patients requiring oxygen therapy at ([2]; Day 15, Total (N=44)): 9 (20.5)
Patients requiring invasive mechanical ventilation and/or intensive care unit admission [2, 20]: 1 (7.1)
Patients requiring noninvasive mechanical ventilation [2, 20]: 1 (7.1)
Patients requiring invasive mechanical ventilation and/or intensive care unit admission [2, 21]: 1 (6.7)
Patients requiring noninvasive mechanical ventilation [2, 21]: 1 (6.7)
Patients requiring invasive mechanical ventilation and/or intensive care unit admission [2, 22]: 1 (6.7)
Patients requiring noninvasive mechanical ventilation [2, 22]: 1 (6.7)
Patients requiring invasive mechanical ventilation and/or intensive care unit admission [2, 23]: 3 (6.8)
Patients requiring noninvasive mechanical ventilation [2, 23]: 3 (6.8)
Patients requiring oxygen therapy at ([2]; Day 31, 1.5 mg (N=14)): 0
Patients requiring oxygen therapy at ([2]; Day 31, 2.0 mg (N = 15)): 2 (13.3)
Patients requiring oxygen therapy at ([2]; Day 31, 2.5 mg (N=15)): 1 (6.7)
Patients requiring oxygen therapy at ([2]; Day 31, Total (N=44)): 3 (6.8)
Mortality from Day 1 to Day 31 ([2]; Total (N = 44)): 2 (4.5)
Patients requiring oxygen therapy (low flow) at ([2]; day 1 to Day 7, Mild (N=6)): 33.3%
Patients requiring oxygen therapy at ([2]; day 1 to Day 7, Mild (N=6)): 33.3%
Patients requiring non-invasive mechanical ventilation at [2, 24]: 4.3%
Patients requiring oxygen therapy (high flow) at [2, 24]: 4.3%
Patients requiring oxygen therapy (low flow) at [2, 24]: 78.3%
Patients requiring oxygen therapy at [2, 24]: 78.3%
Patients requiring ICU admission at ([2]; day 1 to Day 7, Severe (N=15)): 33.3%
Patients requiring invasive mechanical ventilation and/or ICU admission at ([2]; day 1 to Day 7, Severe (N=15)): 33.3%
Patients requiring non-invasive mechanical ventilation at ([2]; day 1 to Day 7, Severe (N=15)): 26.7%
Patients requiring oxygen therapy (high flow) at ([2]; day 1 to Day 7, Severe (N=15)): 26.7%
Patients requiring oxygen therapy (low flow) at ([2]; day 1 to Day 7, Severe (N=15)): 100%
Patients requiring oxygen therapy at ([2]; day 1 to Day 7, Severe (N=15)): 100%
Patients requiring oxygen therapy (low flow) at ([2]; day 1 to Day 15, Mild (N=6)): 33.3%
Patients requiring oxygen therapy at ([2]; day 1 to Day 15, Mild (N=6)): 33.3%
Patients requiring non-invasive mechanical ventilation at [2, 25]: 4.3%
Patients requiring oxygen therapy (high flow) at [2, 25]: 4.3%
Patients requiring oxygen therapy (low flow) at [2, 25]: 78.3%
Patients requiring oxygen therapy at [2, 25]: 78.3%
Patients requiring ICU admission at ([2]; day 1 to Day 15, Severe (N=15)): 40%
Patients requiring invasive mechanical ventilation and/or ICU admission at ([2]; day 1 to Day 15, Severe (N=15)): 40%
Patients requiring invasive mechanical ventilation at ([2]; day 1 to Day 15, Severe (N=15)): 13.3%
Patients requiring non-invasive mechanical ventilation at ([2]; day 1 to Day 15, Severe (N=15)): 40%
Patients requiring oxygen therapy (high flow) at ([2]; day 1 to Day 15, Severe (N=15)): 40%
Patients requiring oxygen therapy (low flow) at ([2]; day 1 to Day 15, Severe (N=15)): 100%
Patients requiring oxygen therapy at ([2]; day 1 to Day 15, Severe (N=15)): 100%
Patients requiring oxygen therapy (low flow) at ([2]; day 1 to Day 31, Mild (N=6)): 33.3%
Patients requiring oxygen therapy at ([2]; day 1 to Day 31, Mild (N=6)): 33.3%
Patients requiring non-invasive mechanical ventilation at [2, 26]: 4.3%
Patients requiring oxygen therapy (high flow) at [2, 26]: 4.3%
Patients requiring oxygen therapy (low flow) at [2, 26]: 78.3%
Patients requiring oxygen therapy at [2, 26]: 78.3%
Deaths at ([2]; day 1 to Day 31, Severe (N=15)): 13.3%
Patients requiring ICU admission at ([2]; day 1 to Day 31, Severe (N=15)): 40%
Patients requiring invasive mechanical ventilation and/or ICU admission at ([2]; day 1 to Day 31, Severe (N=15)): 40%
Patients requiring invasive mechanical ventilation at ([2]; day 1 to Day 31, Severe (N=15)): 20%
Patients requiring non-invasive mechanical ventilation at ([2]; day 1 to Day 31, Severe (N=15)): 46.7%
Patients requiring oxygen therapy (high flow) at ([2]; day 1 to Day 31, Severe (N=15)): 40%
Patients requiring oxygen therapy (low flow) at ([2]; day 1 to Day 31, Severe (N=15)): 100%
Patients requiring oxygen therapy at ([2]; day 1 to Day 31, Severe (N=15)): 100%
patients requiring nonmechanical invasive ventilation ([2]; moderate disease, one patient): 4.3%
patients requiring intensive care support ([2]; severe disease at baseline, 6 of 15): 40%
patients requiring nonmechanical invasive ventilation ([2]; severe disease, seven patients): 46.7%
patients requiring intensive care support ([2]; six of 44 patients): 13.6%
MTD [3, 27]: 3.60 mg/m2
RD [3, 27]: 3.2 mg/m2
MTD [3, 28]: 1.35 mg/m2
RD [3, 28]: 1.2 mg/m2
MTD [3, 29]: 6 mg/m2
RD [3, 29]: 5 mg/m2
MTD [3, 30]: 4.50 mg/m2
RD [3, 30]: 3.75 mg/m2
MTD [3, 31]: 6 mg/m2
RD [3, 31]: 5 mg/m2
recommended dose for subsequent phase 2 studies ([3]; cancer patients, daily over 5 consecutive days): 1.2 mg/m^2/day
IC50 ([4]; Severe acute respiratory syndrome coronavirus 2, Caco-2, pretreated 2 h): 6.12 nM
IC50 ([4]; Severe acute respiratory syndrome coronavirus 2, Calu-3, pretreated 2 h): 5.87 nM
QTcF [5]: ≤ 480 ms
δ QTcF [5]: ≤ 60 ms
IC50 [6]: 38 nM
IC90 [7]: 0.88 nM
IC50 ([8]; read-out: Antiviral IC50): 0.201 nM
IC90 ([8]; read-out: Antiviral IC90): 0.881 nM
